Tests used:
LNCap cells = experiment: Cell viability assay (CellTiterGlo); assay type: cell-based; conditions: Homo sapiens, 144 h, 6 days incubation, CellTiterGlo, read-out: LNCap (IC50)
[1] = biological target: T1, AR (cytosol from LnCaP cells) (Homo sapiens, UniProt P10275, T878A); experiment: AR binding assay (3H-R1881 displacement)
T1 sequence (P10275 1-920 T878A): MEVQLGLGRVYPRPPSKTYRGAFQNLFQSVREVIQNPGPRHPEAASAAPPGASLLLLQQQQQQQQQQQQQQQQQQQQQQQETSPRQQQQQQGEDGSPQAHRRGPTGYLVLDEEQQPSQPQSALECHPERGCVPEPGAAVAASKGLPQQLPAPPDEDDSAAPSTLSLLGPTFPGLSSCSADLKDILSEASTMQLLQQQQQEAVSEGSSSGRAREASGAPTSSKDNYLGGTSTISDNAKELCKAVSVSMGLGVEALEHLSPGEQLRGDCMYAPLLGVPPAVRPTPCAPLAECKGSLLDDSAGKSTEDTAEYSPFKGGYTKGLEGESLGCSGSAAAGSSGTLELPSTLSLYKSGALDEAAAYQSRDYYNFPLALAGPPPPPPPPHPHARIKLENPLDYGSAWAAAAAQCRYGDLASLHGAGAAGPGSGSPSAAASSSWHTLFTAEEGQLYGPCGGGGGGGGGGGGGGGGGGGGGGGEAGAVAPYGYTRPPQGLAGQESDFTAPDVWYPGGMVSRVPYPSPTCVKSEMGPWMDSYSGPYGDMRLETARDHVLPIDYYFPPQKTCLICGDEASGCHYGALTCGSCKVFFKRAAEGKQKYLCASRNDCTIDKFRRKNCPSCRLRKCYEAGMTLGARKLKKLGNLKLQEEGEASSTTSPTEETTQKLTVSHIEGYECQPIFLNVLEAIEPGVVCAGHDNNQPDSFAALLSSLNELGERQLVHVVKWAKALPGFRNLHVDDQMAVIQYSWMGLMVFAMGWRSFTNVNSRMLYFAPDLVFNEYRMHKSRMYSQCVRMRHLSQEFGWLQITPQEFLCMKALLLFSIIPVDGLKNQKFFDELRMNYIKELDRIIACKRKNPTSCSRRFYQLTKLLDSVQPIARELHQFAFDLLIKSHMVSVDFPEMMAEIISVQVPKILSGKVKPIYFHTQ
Experimental: The plate was then centrifuged at 3000 rpm for 30 minutes at 4° C.

[2] = biological target: T2, ligand binding domain of the glucocorticoid receptor (HEK293 cells stably expressing) (Homo sapiens, UniProt P04150); experiment: GR antagonism assay (luciferase reporter)
T2 sequence (P04150 524-758 limits assumed): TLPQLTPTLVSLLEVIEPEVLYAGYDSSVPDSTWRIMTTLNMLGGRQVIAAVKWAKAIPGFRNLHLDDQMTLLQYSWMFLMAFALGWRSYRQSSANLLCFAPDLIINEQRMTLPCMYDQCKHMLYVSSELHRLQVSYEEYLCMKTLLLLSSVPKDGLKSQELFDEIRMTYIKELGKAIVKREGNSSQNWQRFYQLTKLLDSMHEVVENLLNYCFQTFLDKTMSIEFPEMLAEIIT
Experimental: HEK293 cells stably expressing the ligand binding domain of the glucocorticoid receptor were seeded at a density of 40000 cells/well in the assay plate. The assay plate was then incubated at 37° C., 5% CO2 for 30 minutes. Dexamethasone was added to the assay plate at 1.5 nM final concentration and the assay plate incubated at 37° C., 5% CO2 for 20 h. After the incubation period, Dual-glo luciferase reagent was added to the assay plate and mixed at room temperature for 20 minutes on an orbital shaker, before reading out on the En Vision plate reader. 50 μL of Stop & Glo reagent was added to assay plate, mixed at room temperature for 20 minutes, and read on the Envision plate reader.

[3] = biological target: T3, GR (cytosol from IM-9 cells) (Homo sapiens, UniProt P04150); experiment: GR binding assay (3H-Dexamethasone displacement)
T3 sequence (P04150 1-777): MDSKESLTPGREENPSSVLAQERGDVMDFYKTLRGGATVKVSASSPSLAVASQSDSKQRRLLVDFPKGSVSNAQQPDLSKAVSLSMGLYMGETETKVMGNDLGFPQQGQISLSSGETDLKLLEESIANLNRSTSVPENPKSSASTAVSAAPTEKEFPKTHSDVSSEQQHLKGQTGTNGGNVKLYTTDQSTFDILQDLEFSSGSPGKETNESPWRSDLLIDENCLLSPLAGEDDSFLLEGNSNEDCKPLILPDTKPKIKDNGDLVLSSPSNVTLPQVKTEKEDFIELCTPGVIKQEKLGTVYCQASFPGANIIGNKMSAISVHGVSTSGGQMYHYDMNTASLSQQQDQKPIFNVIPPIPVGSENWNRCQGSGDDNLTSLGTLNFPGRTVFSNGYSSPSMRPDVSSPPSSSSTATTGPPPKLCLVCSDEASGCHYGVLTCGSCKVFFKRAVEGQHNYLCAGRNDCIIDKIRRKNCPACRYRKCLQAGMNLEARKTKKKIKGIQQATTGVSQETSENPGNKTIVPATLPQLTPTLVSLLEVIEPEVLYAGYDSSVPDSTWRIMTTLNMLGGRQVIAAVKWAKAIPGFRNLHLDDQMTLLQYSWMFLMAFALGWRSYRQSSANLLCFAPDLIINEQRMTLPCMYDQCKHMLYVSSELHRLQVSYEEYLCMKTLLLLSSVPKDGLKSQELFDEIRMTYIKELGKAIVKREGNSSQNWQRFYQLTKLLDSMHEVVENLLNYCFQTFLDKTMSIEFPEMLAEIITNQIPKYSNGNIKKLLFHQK

CC[C@@]1(O)C(=O)OCc2c1cc1n(c2=O)Cc2c-1nc1cc(F)c(C)c3c1c2[C@@H](NCC1CCN(CC2CCN(C(=O)CN(C)c4ccc([C@H]5C[C@@]6(C)[C@@H](CC[C@]6(OC(C)=O)C(C)=O)[C@@H]6CCC7=CC(=O)CCC7=C65)cc4)CC2)CC1)CC3 [Compound No. 51, (8S,11R,13S,14S,17R)-17-acetyl-11-(4-((2-(4-((4-((((1S,9S)-9-ethyl-5-fluoro-9-hydroxy-4-methyl-10,13-dioxo-2,3,9,10,13,15-hexahydro-1H,12H-benzo[de]pyrano[3′,4′:6,7]indolizino[1,2-b]quinolin-1-yl)amino)methyl)piperidin-1-yl)methyl)piperidin-1-yl)-2-oxoethyl)(methyl)amino)phenyl)-13-methyl-3-oxo-2,3,6,7,8,11,12,13,14,15,16,17-dodecahydro-1H-cyclopenta[a]phenanthren-17-yl acetate]
IC50 (LNCap cells): 0.01 to 0.1 µM
IC50 [1]: < 0.01 µM
IC50 [2]: 0.01 to 0.1 µM
IC50 [3]: 0.01 to 0.1 µM

Reference: patent US20260102501A1, “ANTI-CANCER NUCLEAR HORMONE RECEPTOR-TARGETING COMPOUNDS” (Nuvation Bio Inc., priority 2022, published 2026)
